IC50 data for 25 molecules are collected here from ChEMBL document CHEMBL4680369, “Synthesis of HDAC Inhibitor Libraries via Microscale Workflow” (ACS Med Chem Lett, 2021).

In experiment [1] the target is T1, Histone deacetylase 2 (Homo sapiens, UniProt Q92769). As to the kind of experiment: Inhibition of HDAC2 (unknown origin) using compound purified by traditional preparative HPLC work-flow.
In experiment [2] the target is T2, Histone deacetylase 1 (Homo sapiens, UniProt Q13547). Briefly: Inhibition of HDAC1 (unknown origin) using compound purified by traditional preparative HPLC work-flow.
Experiment [3] has as its target T2, Histone deacetylase 1. As to the kind of experiment: Inhibition of HDAC1 (unknown origin) using compound purified by microgram-scale HPLC work-flow.
Experiment [4] concerns the target T1, Histone deacetylase 2. As to the kind of experiment: Inhibition of HDAC2 (unknown origin) using compound purified by microgram-scale HPLC work-flow.

T1 sequence (Q92769 whole entry): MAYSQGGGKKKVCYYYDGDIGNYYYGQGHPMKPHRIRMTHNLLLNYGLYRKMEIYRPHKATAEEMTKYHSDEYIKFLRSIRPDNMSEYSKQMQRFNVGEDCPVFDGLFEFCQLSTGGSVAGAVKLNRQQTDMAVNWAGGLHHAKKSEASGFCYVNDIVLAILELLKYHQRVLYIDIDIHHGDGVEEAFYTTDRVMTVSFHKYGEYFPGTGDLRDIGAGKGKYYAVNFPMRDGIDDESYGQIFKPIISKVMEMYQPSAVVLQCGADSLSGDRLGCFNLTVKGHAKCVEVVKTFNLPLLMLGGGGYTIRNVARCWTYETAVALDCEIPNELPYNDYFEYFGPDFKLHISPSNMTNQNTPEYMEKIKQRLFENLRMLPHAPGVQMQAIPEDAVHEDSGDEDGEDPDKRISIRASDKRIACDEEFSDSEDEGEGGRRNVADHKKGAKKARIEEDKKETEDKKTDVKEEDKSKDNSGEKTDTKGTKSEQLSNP
T2 sequence (Q13547 whole entry): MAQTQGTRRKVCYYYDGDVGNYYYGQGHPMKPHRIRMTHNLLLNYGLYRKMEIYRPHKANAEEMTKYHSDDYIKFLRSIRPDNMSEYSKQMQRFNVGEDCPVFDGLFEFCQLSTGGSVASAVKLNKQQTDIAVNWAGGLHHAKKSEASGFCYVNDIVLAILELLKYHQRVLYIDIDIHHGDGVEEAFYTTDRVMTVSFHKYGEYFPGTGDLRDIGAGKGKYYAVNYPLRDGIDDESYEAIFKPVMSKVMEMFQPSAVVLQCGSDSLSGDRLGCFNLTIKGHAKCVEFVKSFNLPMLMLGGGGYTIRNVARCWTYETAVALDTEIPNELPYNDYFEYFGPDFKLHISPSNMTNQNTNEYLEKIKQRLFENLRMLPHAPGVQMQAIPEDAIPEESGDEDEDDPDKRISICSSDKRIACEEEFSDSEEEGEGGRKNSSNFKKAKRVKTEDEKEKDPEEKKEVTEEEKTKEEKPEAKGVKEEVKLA

Take `CCC(=O)CCCCC[C@H](NC(=O)[C@H]1CC12CCN(C)CC2)c1ncc(-c2cn(C)c3ccccc23)[nH]1`: the IC50 was 2.9 nM in experiment [1] and 0.5 nM in experiment [2].
Regarding `CCC(=O)CCCCC[C@H](NC(=O)[C@H]1CC12CCN(C)CC2)c1ncc(-c2ccn3ncnc3c2)[nH]1`, the IC50 amounted to 44 nM in experiment [3], 249 nM in experiment [4], 350 nM in experiment [1] and 70 nM in experiment [2].
As for `CCC(=O)CCCCC[C@H](NC(=O)[C@H]1CC12CCN(CC)CC2)c1ncc(-c2cc(C(F)(F)F)ccc2OC)[nH]1`, the IC50 was determined as 1.8 nM in experiment [3] and 16 nM in experiment [4].
Turning to `CCC(=O)CCCCC[C@H](NC(=O)[C@H]1CC12CCN(C)CC2)c1ncc(-c2ccc(C)nc2OC)[nH]1`, the IC50 is 3.2 nM in experiment [3], 18 nM in experiment [4], 19 nM in experiment [1] and 3.7 nM in experiment [2].
`CCC(=O)CCCCC[C@H](NC(=O)[C@H]1CC12CCN(CC)CC2)c1ncc(-c2cc(C(C)C)c(F)cc2OC)[nH]1`: the IC50 was 63 nM in experiment [3] and 279 nM in experiment [4].
With `CCC(=O)CCCCC[C@H](NC(=O)[C@H]1CC12CCN(C)CC2)c1ncc(-c2ccnc(N3CCOCC3)c2F)[nH]1`, the IC50 in experiment [3] came to 22 nM; in experiment [4], 133 nM; in experiment [1], 179 nM; in experiment [2], 36 nM.
On the same counts, the results for `CCC(=O)CCCCC[C@H](NC(=O)[C@H]1CC12CCN(C)CC2)c1ncc(-c2ccc(-c3cccnc3)nc2)[nH]1` are 2.6 nM, 14 nM, 30 nM and 6.5 nM.
On the same counts, the results for `CCOc1ncc(-c2cnc([C@H](CCCCCC(=O)CC)NC(=O)[C@H]3CC34CCN(C)CC4)[nH]2)cn1` are 100 nM, 583 nM, 749 nM and 143 nM.
On to `CCC(=O)CCCCC[C@H](NC(=O)[C@H]1CC12CCN(C)CC2)c1ncc(C2=CC(=O)N(C)CC2)[nH]1`, for which the IC50 in experiment [3] worked out at 302 nM; in experiment [4], 1660 nM; in experiment [1], 1590 nM; in experiment [2], 343 nM.
With `CCC(=O)CCCCC[C@H](NC(=O)[C@H]1CC12CCN(CC)CC2)c1ncc(-c2c(F)cccc2OC)[nH]1`, the IC50 stood at 72 nM in experiment [3] and 370 nM in experiment [4].
The matching figures for `CCC(=O)CCCCC[C@H](NC(=O)[C@H]1CC12CCN(CC)CC2)c1ncc(-c2ccc(C(=O)Nc3cc(C(F)(F)F)ccn3)cc2OC)[nH]1`: 119 nM and 87 nM.
For the molecule `CCC(=O)CCCCC[C@H](NC(=O)[C@H]1CC12CCN(C)CC2)c1ncc(-c2ccc(-n3nc(C)cc3C)cc2)[nH]1`, the IC50 is 12 nM in experiment [3], 70 nM in experiment [4], 64 nM in experiment [1] and 14 nM in experiment [2].
As for `CCC(=O)CCCCC[C@H](NC(=O)[C@H]1CC12CCN(CC)CC2)c1ncc(-c2cc([N+](=O)[O-])ccc2OC)[nH]1`, the figures for the IC50 in experiment [3] and in experiment [4] were 7.8 nM and 43 nM, respectively.
The matching figures for `CCOC(=O)c1cc2cc(OC)c(-c3cnc([C@H](CCCCCC(=O)CC)NC(=O)[C@H]4CC45CCN(CC)CC5)[nH]3)cc2o1`: 1.1 nM and 9.1 nM.
For the molecule `CCC(=O)CCCCC[C@H](NC(=O)[C@H]1CC12CCN(C)CC2)c1ncc(-c2cnc3cccnc3c2)[nH]1`, the IC50 in experiment [3] came out at 14 nM; in experiment [4], 92 nM; in experiment [1] it was 161 nM; in experiment [2] it was 28 nM.
`CCC(=O)CCCCC[C@H](NC(=O)[C@H]1CC12CCN(C)CC2)c1ncc(-c2ccc(C(=O)NC3CCOC3)cc2)[nH]1` (some centres not stated): the IC50 in experiment [3] was 11 nM; in experiment [4], 70 nM; in experiment [1], 54 nM; in experiment [2], 9.1 nM.
With `CCC(=O)CCCCC[C@H](NC(=O)[C@H]1CC12CCN(C)CC2)c1ncc(-c2cnc(-n3cc(C)cn3)nc2)[nH]1`, the IC50 is 102 nM in experiment [3] and 491 nM in experiment [4].
`CCC(=O)CCCCC[C@H](NC(=O)[C@H]1CC12CCN(C)CC2)c1ncc(-c2ccc3[nH]c4ccccc4c3c2)[nH]1`: the IC50 in experiment [1] is 1.1 nM.
In the case of `CCC(=O)CCCCC[C@H](NC(=O)[C@H]1CC12CCN(CC)CC2)c1ncc(C2=CCC(C)N=C2OC)[nH]1` (some centres not stated), the IC50 in experiment [3] is 14 nM; in experiment [4], 1.4 nM.
The matching figures for `CCOC(=O)C1CC1c1ccc(OC)c(-c2cnc([C@H](CCCCCC(=O)CC)NC(=O)[C@H]3CC34CCN(CC)CC4)[nH]2)c1` (some centres not stated): 6.9 nM and 39 nM.
Regarding `CCC(=O)CCCCC[C@H](NC(=O)[C@H]1CC12CCN(CC)CC2)c1ncc(-c2c(F)cc(C(=O)Nc3cc(C(F)(F)F)ccn3)cc2OC)[nH]1`, the results for the 50% inhibitory concentration (IC50) in experiment [3] and in experiment [4] were 22 nM and 320 nM, respectively.
`CCC(=O)CCCCC[C@H](NC(=O)[C@H]1CC12CCN(CC)CC2)c1ncc(-c2cc(C(=O)OC)c(F)cc2OC)[nH]1`: the results for the IC50 in experiment [3] and in experiment [4] were 31 nM and 154 nM, respectively.
In the case of `CCC(=O)CCCCC[C@H](NC(=O)[C@H]1CC12CCN(CC)CC2)c1ncc(-c2cccc(C(F)(F)F)c2OC)[nH]1`, the IC50 in experiment [3] was 13 nM; in experiment [4], 63 nM.
Consider `CCC(=O)CCCCC[C@H](NC(=O)[C@H]1CC12CCN(CC)CC2)c1ncc(-c2cc(C#N)ccc2OC)[nH]1`, for which the IC50 in experiment [3] amounted to 12 nM; in experiment [4], 62 nM.
Take `CCC(=O)CCCCC[C@H](NC(=O)[C@H]1CC12CCN(CC)CC2)c1ncc(-c2c(OC)ccc(F)c2F)[nH]1`: the results for the IC50 in experiment [3] and in experiment [4] were 609 nM and 1550 nM, respectively.

One may read the IC50 as the point on the concentration scale where inhibition reaches its midpoint. A low value points to higher potency.
